Data from US20260042731A1, “(2,4-DICHLOROPHENOXY)ACETIC ACID ANALOGS” (CORTEVA AGRISCIENCE LLC, priority 2022, published 2026).
Read-outs that look alike come from different tables or passages of the source.

Assays:
[1] = tested on: Amaranthus rudis (AMATA), tall water hemp; assay: Postemergence herbicide evaluation, growth of Amaranthus rudis (AMATA); format: in vivo; settings: Amaranthus tuberculatus, post-emergence, read-out: Ave. AMATA
[2] = Volatility of compounds measured by thermogravimetric analysis (TGA); format: physicochemical
[3] = tested on: weeds (ABUTH, AMATA, AMBEL, CHEAL, ERICA); assay: Postemergence herbicide evaluation, overall average % weed control across ABUTH, AMATA, AMBEL, CHEAL, ERICA; format: in vivo; settings: post-emergence, average over the five weeds, read-out: Overall Ave % Weed Control; for pest or weed control at 280 g/ha: 280 g ae/ha; for pest or weed control at 560 g/ha: 560 g ae/ha
[4] = tested on: Ambrosia artemisiifolia (AMBEL), common ragweed; assay: Postemergence herbicide evaluation, growth of Ambrosia artemisiifolia (AMBEL); format: in vivo; settings: Ambrosia artemisiifolia, post-emergence, read-out: AVE. AMBEL
[5] = tested on: Abutilon theophrasti (ABUTH), velvetleaf; assay: Postemergence herbicide evaluation, growth of Abutilon theophrasti (ABUTH); format: in vivo; settings: Abutilon theophrasti, post-emergence, read-out: AVE. ABUTH
[6] = tested on: Chenopodium album (CHEAL), common lambsquarters; assay: Postemergence herbicide evaluation, growth of Chenopodium album (CHEAL); format: in vivo; settings: Chenopodium album, post-emergence, read-out: Ave. CHEAL
[7] = tested on: glyphosate resistant Conyza canadensis (L.) (ERICA), horseweed; assay: Postemergence herbicide evaluation, growth of Conyza canadensis (ERICA); format: in vivo; settings: Erigeron canadensis, post-emergence, read-out: Ave. ERICA
[8] = 168 h, 280 g ae/ha, 7 DAA, percent reduction in plant size relative to untreated control
[9] = 168 h, 560 g ae/ha, 7 DAA, percent reduction in plant size relative to untreated control
[10] = 336 h, 280 g ae/ha, 14 DAA, percent reduction in plant size relative to untreated control
[11] = 336 h, 560 g ae/ha, 14 DAA, percent reduction in plant size relative to untreated control
[12] = 504 h, 280 g ae/ha, 21 DAA, percent reduction in plant size relative to untreated control
[13] = 504 h, 560 g ae/ha, 21 DAA, percent reduction in plant size relative to untreated control

O=C(COc1ccc(Cl)cc1Cl)OCOC(=O)c1ccccc1 [Compound E7, (2-(2,4-Dichlorophenoxy)acetoxy)methyl benzoate]
pest or weed control at 280 g/ha ([1]; 168 h): 78%
pest or weed control at 560 g/ha ([1]; 168 h): 80%
pest or weed control at 280 g/ha ([1]; 336 h): 95%
pest or weed control at 560 g/ha ([1]; 336 h): 85%
pest or weed control at 280 g/ha ([1]; 504 h): 93%
pest or weed control at 560 g/ha ([1]; 504 h): 89%
TGA Data (rate of weight loss, volatility) [2]: 1.5 µg/min
pest or weed control at 280 g/ha ([3]; 168 h, 7 DAA): 71%
pest or weed control at 560 g/ha ([3]; 168 h, 7 DAA): 78%
pest or weed control at 280 g/ha ([3]; 336 h, 14 DAA): 85%
pest or weed control at 560 g/ha ([3]; 336 h, 14 DAA): 90%
pest or weed control at 280 g/ha ([3]; 504 h, 21 DAA): 88%
pest or weed control at 560 g/ha ([3]; 504 h, 21 DAA): 89%
pest or weed control at 280 g/ha ([4]; 168 h): 63%
pest or weed control at 560 g/ha ([4]; 168 h): 78%
pest or weed control at 280 g/ha ([4]; 336 h): 93%
pest or weed control at 560 g/ha ([4]; 336 h): 97%
pest or weed control at 280 g/ha ([4]; 504 h): 96%
pest or weed control at 560 g/ha ([4]; 504 h): 100%
pest or weed control at 280 g/ha ([5]; 168 h): 80%
pest or weed control at 560 g/ha ([5]; 168 h): 85%
pest or weed control at 280 g/ha ([5]; 336 h): 84%
pest or weed control at 560 g/ha ([5]; 336 h): 89%
pest or weed control at 280 g/ha ([5]; 504 h): 90%
pest or weed control at 560 g/ha ([5]; 504 h): 92%
pest or weed control at 280 g/ha ([6]; 168 h): 68%
pest or weed control at 560 g/ha ([6]; 168 h): 75%
pest or weed control at 280 g/ha ([6]; 336 h): 73%
pest or weed control at 560 g/ha ([6]; 336 h): 93%
pest or weed control at 280 g/ha ([6]; 504 h): 70%
pest or weed control at 560 g/ha ([6]; 504 h): 70%
pest or weed control at 280 g/ha ([7]; 168 h): 65%
pest or weed control at 560 g/ha ([7]; 168 h): 70%
pest or weed control at 280 g/ha ([7]; 336 h): 83%
pest or weed control at 560 g/ha ([7]; 336 h): 88%
pest or weed control at 280 g/ha ([7]; 504 h): 93%
pest or weed control at 560 g/ha ([7]; 504 h): 95%

CC(=O)/C(C)=N/OC(=O)COc1ccc(Cl)cc1Cl [Compound A8, 3-((2-(2,4-Dichlorophenoxy)acetoxy)imino)butan-2-one]
pest or weed control at 280 g/ha [1, 8]: 70%
pest or weed control at 560 g/ha [1, 9]: 75%
pest or weed control at 280 g/ha [1, 10]: 83%
pest or weed control at 560 g/ha [1, 11]: 85%
pest or weed control at 280 g/ha [1, 12]: 78%
pest or weed control at 560 g/ha [1, 13]: 87%
TGA Data (rate of weight loss, volatility) [2]: 1 µg/min
pest or weed control at 280 g/ha ([3]; 168 h, 7 DAA): 70%
pest or weed control at 560 g/ha ([3]; 168 h, 7 DAA): 79%
pest or weed control at 280 g/ha ([3]; 336 h, 14 DAA): 79%
pest or weed control at 560 g/ha ([3]; 336 h, 14 DAA): 90%
pest or weed control at 280 g/ha ([3]; 504 h, 21 DAA): 84%
pest or weed control at 560 g/ha ([3]; 504 h, 21 DAA): 93%
pest or weed control at 280 g/ha [4, 8]: 70%
pest or weed control at 560 g/ha [4, 9]: 80%
pest or weed control at 280 g/ha [4, 10]: 90%
pest or weed control at 560 g/ha [4, 11]: 98%
pest or weed control at 280 g/ha [4, 12]: 96%
pest or weed control at 560 g/ha [4, 13]: 100%
pest or weed control at 280 g/ha [5, 8]: 74%
pest or weed control at 560 g/ha [5, 9]: 95%
pest or weed control at 280 g/ha [5, 10]: 65%
pest or weed control at 560 g/ha [5, 11]: 96%
pest or weed control at 280 g/ha [5, 12]: 70%
pest or weed control at 560 g/ha [5, 13]: 99%
pest or weed control at 280 g/ha [6, 8]: 68%
pest or weed control at 560 g/ha [6, 9]: 70%
pest or weed control at 280 g/ha [6, 10]: 73%
pest or weed control at 560 g/ha [6, 11]: 80%
pest or weed control at 280 g/ha [6, 12]: 83%
pest or weed control at 560 g/ha [6, 13]: 80%
pest or weed control at 280 g/ha [7, 8]: 70%
pest or weed control at 560 g/ha [7, 9]: 73%
pest or weed control at 280 g/ha [7, 10]: 85%
pest or weed control at 560 g/ha [7, 11]: 90%
pest or weed control at 280 g/ha [7, 12]: 92%
pest or weed control at 560 g/ha [7, 13]: 97%
